Entries after “also recorded” stand apart in the source; their conditions may differ. Where two headings read alike, the source gives them in different places.
Assays:
human VDR = target: T1, human VDR (Homo sapiens, UniProt P11473); test: VDR binding affinity, split-luciferase vitamin D biosensor; details: for VDR binding affinity (in words): comparison between compounds, Fig. 3a; for Relative binding affinity: normalized to that of 1
T1 construct: made in house; host or cells: E. coli (cell lysate used)
T1 sequence (P11473 127-423 limits assumed): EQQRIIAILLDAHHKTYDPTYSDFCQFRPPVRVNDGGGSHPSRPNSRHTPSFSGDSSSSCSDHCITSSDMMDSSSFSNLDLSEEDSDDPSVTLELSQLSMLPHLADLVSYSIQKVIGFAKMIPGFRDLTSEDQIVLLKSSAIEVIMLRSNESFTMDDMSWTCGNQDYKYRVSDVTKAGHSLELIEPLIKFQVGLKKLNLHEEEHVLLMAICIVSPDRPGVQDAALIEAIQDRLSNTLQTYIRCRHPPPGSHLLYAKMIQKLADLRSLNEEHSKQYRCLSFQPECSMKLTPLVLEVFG
Description: The binding affinity of each compound for the human VDR was evaluated as described previously[10],[19]. In brief, 49 μL of cell lysate derived from recombinant E. coli expressing split-luciferase vitamin D biosensor protein was added to individual wells of a 96-well plate. Next, 1 μL of ethanol solution of each compound at appropriate concentrations was added to each well and incubated for 30 min at 25 °C. Subsequently, 50 μL of the Luciferin solution containing 20 mM of MgSO4, 2 mM of D-luciferin, and 4 mM of adenosine triphosphate in 25 mM Tris–HCl (pH 7.4) was introduced into each well and incubated for 30 min at 25 °C. The luminescence (photon counts) was measured using a luminometer (Infinite 200 Pro 96-microplate luminometer, Tecan, Switzerland). […] X values were calculated using the following equation: X=10^logA/B×50-C/D-C+logB.
In this equation, A and B correspond to concentrations near 50% of the maximum relative light intensity. C and D represent the relative light intensity (%) at concentrations B and A, respectively.

RAW264.7 cells = test: Osteoclastic differentiation-promoting activity (TRAP-positive multinucleated osteoclasts); type: cell-based; details: sRANKL 100 ng/mL, 4 days; relative to 50 μM 1, Fig. 4
Description: RAW264.7 cells were used as pre-osteoclastic cells. Cells were cultured in α-MEM medium containing 10% fetal bovine serum, 2 mM L-glutamine, 100 U/mL penicillin, and 100 μg/mL streptomycin. Osteoclastic differentiation was induced following treatment with 100 ng/mL sRANKL (Oriental Yeast, Japan), and each sample was added to the medium and incubated for 4 days with 5% CO2 at 37 °C. Cells were fixed in 10% glutaraldehyde for 15 min at 37 °C and subsequently incubated for 10 min at 37 °C in tartrate-resistant acid phosphatase (TRAP) buffer, containing 0.1 M sodium acetate, 0.1 M acetic acid, 10 mg/mL naphthol AS-MX phosphate, 0.1% Triton X-100, 0.3 M potassium tartrate, and 0.3 mg/mL Fast Red Violet LB Salt. TRAP-positive dark-red cells with more than three nuclei were manually counted under a light microscope (20× objective) as multinucleated osteoclasts. Y-27632[22] was used as a positive control.

[1] = split-luciferase biosensor lysate, 25 °C, mean ± SD of at least triplicate determinations, read-out: Concentration at 50% maximum light intensity

For `C=C1CCCC(C)(C)C1CC/C(C)=C/CC/C=C(\C)CC/C=C(\C)CCC=C(C)C` (stereo not shown) [compound 4], the “relative intensity at a concentration of 100 μM” value (human VDR; 100 μM, relative light intensity compared to control (1% ethanol)) was 0.82 ± 0.07 and the “VDR binding affinity (in words)” value (human VDR) was “did not bind to the VDR; also recorded: very low VDR binding affinity”.

`CC1=CC[C@H]2C(C)(C)CCC[C@]2(C)[C@H]1CC[C@@H]1[C@@]2(C)CCCC(C)(C)[C@@H]2CC[C@@]1(C)O` [compound 11] was tested, and the “VDR binding affinity (in words)” value (human VDR) was “higher affinity than 10 and 15”, the Relative binding affinity (human VDR) was 8.9 and the EC50 (human VDR; [1]) was 12.6 ± 2.1 µM.

For `C=C1CC[C@H]2C(C)(C)[C@@H](O)CC[C@]2(C)[C@H]1CC[C@@H]1[C@@]2(C)CCCC(C)(C)[C@@H]2CC[C@@]1(C)O` [compound 14], the “VDR binding affinity (in words)” value (human VDR) was “higher affinity than 10 and 15” and the EC50 (human VDR; [1]) was 13.9 ± 2.5 µM.

`C=C1CCC(O)CC1=CC=C1CCCC2(C)C1CCC2C(C)CCCC(C)(C)O` (stereo not shown) [VD-II, 25-hydroxyvitamin D3, reference compound] was tested, and the Relative binding affinity (human VDR) was 1510 and the EC50 (human VDR; [1]) was 0.074 ± 0.015 µM.

For `C=C1CCCC(C)(C)[C@@H]1CC/C(C)=C/CC[C@@H]1[C@@]2(C)CCCC(C)(C)[C@@H]2CC[C@@]1(C)O` [compound 1, ambrein], the EC50 (human VDR; Fig. 2b, Table S1, read-out: EC50 value (VDR binding affinity)) was 112 ± 29 µM and the Relative binding affinity (human VDR) was 1.

In the case of `C/C(=C\CC[C@@H]1[C@@]2(C)CCCC(C)(C)[C@@H]2CC[C@@]1(C)O)CC[C@H]1C(C)(C)CCC[C@]1(C)O` [compound 10], the Relative binding affinity (human VDR) is reported as 4.6 and the EC50 (human VDR; [1]) is reported as 24.6 ± 8.2 µM.

`C=C1CCCC(C)(C)[C@@H]1CC/C(C)=C/CC[C@H]1C(=C)CC[C@H]2C(C)(C)CCC[C@]12C` [compound 13] was tested, and the “VDR binding affinity (in words)” value (human VDR) was “higher affinity than 10 and 15”, the Relative binding affinity (human VDR) was 7.0 and the EC50 (human VDR; [1]) was 16 ± 2.2 µM.

`C=C1CC[C@H](O)C(C)(C)[C@@H]1CC/C(C)=C/CC[C@@H]1[C@@]2(C)CCCC(C)(C)[C@@H]2CC[C@@]1(C)O` [compound 15] was tested, and the Relative binding affinity (human VDR) was 2.5 and the EC50 (human VDR; [1]) was 45.2 ± 17.1 µM.

`C=C1CC[C@H]2C(C)(C)CCC[C@]2(C)[C@H]1CC[C@@H]1[C@@]2(C)CCCC(C)(C)[C@@H]2CC[C@@]1(C)O` [compound 6] was tested, and the “VDR binding affinity (in words)” value (human VDR) was “tenfold higher than that of 1”, the Relative binding affinity (human VDR) was 10 and the EC50 (human VDR; [1]) was 11.1 ± 1.5 µM. For the same compound, the “osteoclastic differentiation-promoting activity (in words)” value (RAW264.7 cells) was “not comparable to that of 1”.

In the case of `CC(C)=CCC/C(C)=C/CC/C(C)=C/CC[C@@H]1[C@@]2(C)CCCC(C)(C)[C@@H]2CC[C@@]1(C)O` [compound 3], the Relative binding affinity (human VDR) is reported as 0.88, the EC50 (human VDR; [1]) is reported as 128 ± 38 µM and the “osteoclastic differentiation-promoting activity (in words)” value (RAW264.7 cells) is reported as “no activity”.
